Legend:
[1] = biological target: Serine/threonine-protein kinase PLK3 (Homo sapiens) (UniProt Q9H4B4); assay: PLK3 Kinase screen; conditions: Compound concentration 1.0 uM
[2] = biological target: Mitogen-activated protein kinase 8 (Homo sapiens) (UniProt P45983); assay: MAPK8 (JNK1) Kinase screen; conditions: Compound concentration 1.0 uM
[3] = biological target: T1, Tyrosine-protein kinase Tec (Homo sapiens) (UniProt P42680); assay: TEC Kinase screen; conditions: Compound concentration 1.0 uM
T1 sequence (whole entry): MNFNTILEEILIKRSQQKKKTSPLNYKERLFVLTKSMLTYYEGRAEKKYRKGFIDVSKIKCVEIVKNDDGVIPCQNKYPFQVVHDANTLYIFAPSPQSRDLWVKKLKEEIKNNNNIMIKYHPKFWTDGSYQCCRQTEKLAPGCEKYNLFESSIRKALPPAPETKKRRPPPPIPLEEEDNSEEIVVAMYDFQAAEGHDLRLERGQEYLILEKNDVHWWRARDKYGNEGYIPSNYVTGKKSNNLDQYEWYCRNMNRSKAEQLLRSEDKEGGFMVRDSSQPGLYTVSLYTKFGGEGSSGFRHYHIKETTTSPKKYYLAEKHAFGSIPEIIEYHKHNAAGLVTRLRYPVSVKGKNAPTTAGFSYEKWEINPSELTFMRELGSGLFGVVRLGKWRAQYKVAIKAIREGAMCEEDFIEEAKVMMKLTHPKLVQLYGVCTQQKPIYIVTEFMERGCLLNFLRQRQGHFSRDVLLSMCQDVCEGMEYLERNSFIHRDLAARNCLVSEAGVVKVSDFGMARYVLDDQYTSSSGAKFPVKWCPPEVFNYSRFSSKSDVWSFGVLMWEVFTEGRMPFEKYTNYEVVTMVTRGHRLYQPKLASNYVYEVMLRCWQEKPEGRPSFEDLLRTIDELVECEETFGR

[4] = biological target: Caspase-9 (Homo sapiens) (UniProt P55211); assay: Peptidase, CASP9 (Caspase 9) Eurofins-Panlabs enzyme assay; design: substrate with concentration; conditions: Compound concentration 10.0 uM
Chain of Caspase-9 (Homo sapiens) (P55211 1-315 limits assumed): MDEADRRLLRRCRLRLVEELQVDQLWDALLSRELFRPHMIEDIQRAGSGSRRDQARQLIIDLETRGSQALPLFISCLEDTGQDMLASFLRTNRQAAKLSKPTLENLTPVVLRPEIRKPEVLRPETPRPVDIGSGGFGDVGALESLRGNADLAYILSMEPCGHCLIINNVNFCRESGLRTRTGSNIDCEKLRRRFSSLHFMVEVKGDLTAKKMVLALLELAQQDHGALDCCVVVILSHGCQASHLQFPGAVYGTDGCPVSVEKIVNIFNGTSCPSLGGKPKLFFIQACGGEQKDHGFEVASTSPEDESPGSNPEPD
Chain of Caspase-9 (Homo sapiens) (P55211 331-416 limits assumed): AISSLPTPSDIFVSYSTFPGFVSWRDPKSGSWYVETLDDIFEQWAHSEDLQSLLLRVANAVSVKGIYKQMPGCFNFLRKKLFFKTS

[5] = biological target: Receptor-type tyrosine-protein kinase FLT3 (Homo sapiens) (UniProt P36888); assay: FLT3 Kinase screen; conditions: Compound concentration 1.0 uM
[6] = biological target: Aurora kinase B (Homo sapiens) (UniProt Q96GD4); assay: AURKB (Aurora B) Kinase screen; conditions: Compound concentration 1.0 uM
Chain of Aurora kinase B (Homo sapiens) (Q96GD4 whole entry): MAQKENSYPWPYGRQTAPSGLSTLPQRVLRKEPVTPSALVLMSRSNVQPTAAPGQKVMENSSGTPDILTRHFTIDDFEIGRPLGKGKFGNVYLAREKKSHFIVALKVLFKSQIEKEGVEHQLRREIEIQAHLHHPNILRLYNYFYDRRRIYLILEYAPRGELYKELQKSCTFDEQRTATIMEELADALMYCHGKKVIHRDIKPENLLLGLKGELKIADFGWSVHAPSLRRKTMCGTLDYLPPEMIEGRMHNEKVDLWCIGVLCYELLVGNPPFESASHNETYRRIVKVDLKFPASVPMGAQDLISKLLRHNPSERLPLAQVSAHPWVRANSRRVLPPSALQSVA

[7] = biological target: Protein-tyrosine kinase 2-beta (Homo sapiens) (UniProt Q14289); assay: PTK2B (FAK2) Kinase screen; conditions: Compound concentration 1.0 uM
[8] = biological target: Serine/threonine-protein kinase SIK2 (Homo sapiens) (UniProt Q9H0K1); assay: SNF1LK2 Kinase screen; conditions: Compound concentration 1.0 uM
Chain of Serine/threonine-protein kinase SIK2 (Homo sapiens) (Q9H0K1 whole entry, looked up): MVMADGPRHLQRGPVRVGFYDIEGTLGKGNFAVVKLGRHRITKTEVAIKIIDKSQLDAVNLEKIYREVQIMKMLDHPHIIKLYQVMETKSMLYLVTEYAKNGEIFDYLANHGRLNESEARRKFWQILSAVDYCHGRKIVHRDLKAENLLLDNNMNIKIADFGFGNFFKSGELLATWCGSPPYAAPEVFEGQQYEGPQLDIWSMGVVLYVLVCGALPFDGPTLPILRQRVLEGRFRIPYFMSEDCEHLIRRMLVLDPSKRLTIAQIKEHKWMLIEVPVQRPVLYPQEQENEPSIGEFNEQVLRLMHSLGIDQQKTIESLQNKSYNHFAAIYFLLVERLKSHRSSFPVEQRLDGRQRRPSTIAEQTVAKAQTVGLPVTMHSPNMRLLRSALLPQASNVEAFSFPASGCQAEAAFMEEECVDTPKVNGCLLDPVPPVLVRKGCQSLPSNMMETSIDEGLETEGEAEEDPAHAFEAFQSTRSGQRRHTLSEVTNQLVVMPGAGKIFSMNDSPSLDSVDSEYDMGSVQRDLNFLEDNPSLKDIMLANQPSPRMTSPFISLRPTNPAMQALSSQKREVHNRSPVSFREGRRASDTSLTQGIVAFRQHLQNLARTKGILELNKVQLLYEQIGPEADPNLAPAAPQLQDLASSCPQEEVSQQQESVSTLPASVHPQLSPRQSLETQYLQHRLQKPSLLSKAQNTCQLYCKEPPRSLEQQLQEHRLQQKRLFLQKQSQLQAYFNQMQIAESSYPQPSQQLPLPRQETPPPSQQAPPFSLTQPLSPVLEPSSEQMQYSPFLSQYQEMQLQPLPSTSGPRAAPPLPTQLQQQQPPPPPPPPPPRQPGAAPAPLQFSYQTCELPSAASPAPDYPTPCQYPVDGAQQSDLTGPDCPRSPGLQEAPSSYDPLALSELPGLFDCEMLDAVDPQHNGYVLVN

[9] = biological target: T2, Serine/threonine-protein kinase TBK1 (Homo sapiens) (UniProt Q9UHD2); assay: TBK1 Kinase screen; conditions: Compound concentration 1.0 uM
T2 sequence (whole entry): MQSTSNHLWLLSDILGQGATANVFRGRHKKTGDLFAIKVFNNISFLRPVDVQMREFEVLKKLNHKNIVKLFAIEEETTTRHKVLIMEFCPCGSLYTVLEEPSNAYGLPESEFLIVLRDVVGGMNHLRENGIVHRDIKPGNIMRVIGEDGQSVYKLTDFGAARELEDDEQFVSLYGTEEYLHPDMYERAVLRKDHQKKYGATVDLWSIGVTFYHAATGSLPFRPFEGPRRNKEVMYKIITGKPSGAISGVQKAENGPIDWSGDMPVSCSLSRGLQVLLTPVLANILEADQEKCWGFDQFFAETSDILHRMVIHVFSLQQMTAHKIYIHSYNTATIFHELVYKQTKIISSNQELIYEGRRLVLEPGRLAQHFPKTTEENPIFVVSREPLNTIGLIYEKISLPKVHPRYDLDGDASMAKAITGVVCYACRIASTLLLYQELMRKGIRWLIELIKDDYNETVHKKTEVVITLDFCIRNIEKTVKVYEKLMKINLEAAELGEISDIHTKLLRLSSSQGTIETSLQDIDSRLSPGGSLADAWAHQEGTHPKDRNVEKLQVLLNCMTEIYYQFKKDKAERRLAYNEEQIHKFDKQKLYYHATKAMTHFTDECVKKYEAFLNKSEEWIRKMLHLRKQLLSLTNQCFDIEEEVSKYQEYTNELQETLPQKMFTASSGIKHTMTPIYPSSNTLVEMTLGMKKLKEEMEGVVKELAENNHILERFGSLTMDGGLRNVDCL

[10] = biological target: Proto-oncogene tyrosine-protein kinase Src (Homo sapiens) (UniProt P12931); assay: SRC Kinase screen; conditions: Compound concentration 1.0 uM
Chain of Proto-oncogene tyrosine-protein kinase Src (Homo sapiens) (P12931 2-536 limits assumed): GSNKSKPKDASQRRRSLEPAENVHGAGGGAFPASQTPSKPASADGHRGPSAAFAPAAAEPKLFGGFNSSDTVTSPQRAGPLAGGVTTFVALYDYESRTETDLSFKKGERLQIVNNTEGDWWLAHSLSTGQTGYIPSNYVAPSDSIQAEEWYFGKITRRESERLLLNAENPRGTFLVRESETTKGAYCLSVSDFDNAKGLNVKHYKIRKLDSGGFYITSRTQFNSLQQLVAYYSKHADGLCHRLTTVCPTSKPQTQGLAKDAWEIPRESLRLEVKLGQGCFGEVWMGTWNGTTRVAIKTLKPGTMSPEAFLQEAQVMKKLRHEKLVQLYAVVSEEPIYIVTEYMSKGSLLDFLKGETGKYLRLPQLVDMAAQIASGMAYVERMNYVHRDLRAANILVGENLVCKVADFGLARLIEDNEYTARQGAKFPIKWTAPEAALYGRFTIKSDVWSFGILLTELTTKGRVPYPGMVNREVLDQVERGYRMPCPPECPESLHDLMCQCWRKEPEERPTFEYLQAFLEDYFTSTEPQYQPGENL

[11] = biological target: T3, Ephrin type-B receptor 2 (Homo sapiens) (UniProt P29323); assay: EPHB2 Kinase screen; conditions: Compound concentration 1.0 uM
T3 sequence (whole entry): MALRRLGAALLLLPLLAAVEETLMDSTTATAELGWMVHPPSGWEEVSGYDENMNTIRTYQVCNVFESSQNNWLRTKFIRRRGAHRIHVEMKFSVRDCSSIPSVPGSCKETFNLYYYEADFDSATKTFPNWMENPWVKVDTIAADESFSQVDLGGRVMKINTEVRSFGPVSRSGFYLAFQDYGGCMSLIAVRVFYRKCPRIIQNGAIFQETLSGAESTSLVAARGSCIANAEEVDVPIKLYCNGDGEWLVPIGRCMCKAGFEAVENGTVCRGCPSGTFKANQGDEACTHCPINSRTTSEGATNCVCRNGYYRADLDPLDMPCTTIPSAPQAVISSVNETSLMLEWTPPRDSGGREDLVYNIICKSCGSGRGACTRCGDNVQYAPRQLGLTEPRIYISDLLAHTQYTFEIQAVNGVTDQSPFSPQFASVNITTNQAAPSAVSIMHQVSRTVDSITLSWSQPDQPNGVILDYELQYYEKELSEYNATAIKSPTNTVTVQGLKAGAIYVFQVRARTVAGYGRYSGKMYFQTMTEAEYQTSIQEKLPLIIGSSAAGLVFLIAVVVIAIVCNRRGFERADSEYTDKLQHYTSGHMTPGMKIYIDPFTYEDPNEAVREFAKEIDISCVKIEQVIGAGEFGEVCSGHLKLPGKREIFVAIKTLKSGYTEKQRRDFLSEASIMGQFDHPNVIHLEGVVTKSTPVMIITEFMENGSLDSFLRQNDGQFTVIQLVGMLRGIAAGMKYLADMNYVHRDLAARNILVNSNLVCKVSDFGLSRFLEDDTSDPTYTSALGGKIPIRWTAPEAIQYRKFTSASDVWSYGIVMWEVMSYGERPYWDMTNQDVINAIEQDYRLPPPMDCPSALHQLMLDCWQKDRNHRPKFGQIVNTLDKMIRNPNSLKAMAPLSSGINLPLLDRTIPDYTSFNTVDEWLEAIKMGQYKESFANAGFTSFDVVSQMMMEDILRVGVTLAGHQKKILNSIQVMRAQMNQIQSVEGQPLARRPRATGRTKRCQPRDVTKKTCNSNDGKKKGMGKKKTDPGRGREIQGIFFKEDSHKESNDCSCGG

[12] = biological target: Homeodomain-interacting protein kinase 2 (Homo sapiens) (UniProt Q9H2X6); assay: HIPK2 Kinase screen; conditions: Compound concentration 1.0 uM
Chain of Homeodomain-interacting protein kinase 2 (Homo sapiens) (Q9H2X6 whole entry, looked up): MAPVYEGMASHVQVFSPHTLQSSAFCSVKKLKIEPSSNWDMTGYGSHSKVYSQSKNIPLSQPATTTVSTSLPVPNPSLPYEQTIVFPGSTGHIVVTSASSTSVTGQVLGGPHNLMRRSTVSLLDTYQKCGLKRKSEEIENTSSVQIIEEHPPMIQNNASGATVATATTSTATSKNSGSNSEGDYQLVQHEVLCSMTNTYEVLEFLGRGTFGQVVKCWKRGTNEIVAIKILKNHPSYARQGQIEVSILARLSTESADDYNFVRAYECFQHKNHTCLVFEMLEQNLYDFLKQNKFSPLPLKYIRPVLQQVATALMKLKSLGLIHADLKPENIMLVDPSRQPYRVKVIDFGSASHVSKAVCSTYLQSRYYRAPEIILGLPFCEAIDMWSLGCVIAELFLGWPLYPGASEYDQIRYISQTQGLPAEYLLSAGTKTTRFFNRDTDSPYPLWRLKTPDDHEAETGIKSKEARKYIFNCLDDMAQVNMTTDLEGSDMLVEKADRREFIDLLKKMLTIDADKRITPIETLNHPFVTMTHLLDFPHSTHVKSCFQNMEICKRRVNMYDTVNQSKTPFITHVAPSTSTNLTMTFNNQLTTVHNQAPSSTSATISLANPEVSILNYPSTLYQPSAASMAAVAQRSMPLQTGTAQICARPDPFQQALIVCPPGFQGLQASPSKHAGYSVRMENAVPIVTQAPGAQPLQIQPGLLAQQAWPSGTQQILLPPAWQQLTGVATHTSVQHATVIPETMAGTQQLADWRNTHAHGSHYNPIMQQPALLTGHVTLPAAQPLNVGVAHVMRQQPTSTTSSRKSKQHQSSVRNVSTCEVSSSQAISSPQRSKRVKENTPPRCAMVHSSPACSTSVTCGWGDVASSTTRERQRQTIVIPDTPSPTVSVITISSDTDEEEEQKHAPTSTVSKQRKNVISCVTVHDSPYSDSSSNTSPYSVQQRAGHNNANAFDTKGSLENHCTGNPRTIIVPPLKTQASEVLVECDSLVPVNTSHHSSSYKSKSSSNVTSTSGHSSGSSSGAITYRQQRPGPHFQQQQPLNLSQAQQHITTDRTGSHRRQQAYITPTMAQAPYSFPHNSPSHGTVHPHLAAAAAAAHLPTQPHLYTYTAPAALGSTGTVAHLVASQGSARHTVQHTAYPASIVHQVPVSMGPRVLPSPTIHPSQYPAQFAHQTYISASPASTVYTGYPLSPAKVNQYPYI

[13] = biological target: Beta-2 adrenergic receptor (Homo sapiens) (UniProt P07550); conditions: Compound concentration 10.0 uM
Chain of Beta-2 adrenergic receptor (Homo sapiens) (P07550 whole entry, looked up): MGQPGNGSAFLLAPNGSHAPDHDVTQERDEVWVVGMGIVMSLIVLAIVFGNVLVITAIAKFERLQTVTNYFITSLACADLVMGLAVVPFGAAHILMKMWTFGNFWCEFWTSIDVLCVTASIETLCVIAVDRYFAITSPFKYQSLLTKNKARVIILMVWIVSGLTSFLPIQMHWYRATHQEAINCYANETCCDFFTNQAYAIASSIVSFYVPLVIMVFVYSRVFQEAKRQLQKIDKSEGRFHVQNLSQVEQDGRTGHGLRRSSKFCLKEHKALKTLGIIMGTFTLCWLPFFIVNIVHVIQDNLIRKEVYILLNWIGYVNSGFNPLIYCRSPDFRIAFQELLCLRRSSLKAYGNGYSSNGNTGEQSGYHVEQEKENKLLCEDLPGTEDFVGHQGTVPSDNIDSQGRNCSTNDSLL

[14] = biological target: Glutamate NMDA receptor (Rattus norvegicus) (UniProt P35439+Q00959+Q00960+Q00961+Q62645+Q8VHN2+Q9R1M7); conditions: Compound concentration 10.0 uM

Measured: inhibition

Chain of Mitogen-activated protein kinase 8 (Homo sapiens) (P45983 whole entry): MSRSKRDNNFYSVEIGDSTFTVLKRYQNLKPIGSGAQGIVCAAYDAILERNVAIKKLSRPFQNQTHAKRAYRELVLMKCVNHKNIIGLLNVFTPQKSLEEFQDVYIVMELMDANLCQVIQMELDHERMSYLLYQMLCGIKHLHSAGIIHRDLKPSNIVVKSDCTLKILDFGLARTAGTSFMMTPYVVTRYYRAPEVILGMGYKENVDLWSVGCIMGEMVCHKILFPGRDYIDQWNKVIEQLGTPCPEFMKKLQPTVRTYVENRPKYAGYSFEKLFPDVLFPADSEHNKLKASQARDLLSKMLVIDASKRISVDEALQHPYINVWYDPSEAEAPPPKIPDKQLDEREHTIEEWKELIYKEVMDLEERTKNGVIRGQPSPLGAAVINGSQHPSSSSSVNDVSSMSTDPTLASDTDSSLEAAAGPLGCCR
Chain of Serine/threonine-protein kinase PLK3 (Homo sapiens) (Q9H4B4 whole entry, looked up): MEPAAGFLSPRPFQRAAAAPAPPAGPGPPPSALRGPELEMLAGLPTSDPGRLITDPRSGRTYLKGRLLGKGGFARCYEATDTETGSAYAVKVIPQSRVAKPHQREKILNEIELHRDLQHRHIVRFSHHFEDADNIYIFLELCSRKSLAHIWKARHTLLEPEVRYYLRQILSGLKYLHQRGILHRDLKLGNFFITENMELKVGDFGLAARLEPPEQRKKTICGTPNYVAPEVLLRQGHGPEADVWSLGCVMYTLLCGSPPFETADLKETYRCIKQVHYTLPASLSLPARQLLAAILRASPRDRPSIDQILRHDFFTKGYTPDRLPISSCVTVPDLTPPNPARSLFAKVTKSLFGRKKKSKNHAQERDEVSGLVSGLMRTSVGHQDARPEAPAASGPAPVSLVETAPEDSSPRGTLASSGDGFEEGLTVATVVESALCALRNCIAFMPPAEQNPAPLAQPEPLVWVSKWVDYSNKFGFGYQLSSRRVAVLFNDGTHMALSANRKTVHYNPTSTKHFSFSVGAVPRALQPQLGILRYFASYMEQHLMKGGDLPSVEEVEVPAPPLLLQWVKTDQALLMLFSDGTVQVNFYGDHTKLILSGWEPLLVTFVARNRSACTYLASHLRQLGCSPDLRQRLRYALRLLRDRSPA

C[C@@H]1CN(c2cc(-c3n[nH]c4ccc(OC5(C)CC5)cc34)ncn2)C[C@H](C)O1 [MLi-2]
inactive: [1] 4.9% | [2] -0.139% | [3] -2.1% | [4] 5% | [5] 2.53% | [6] 16.2% | [7] 2.48% | [8] 7.08% | [9] 7.78% | [10] 4.97% | [11] -1.14% | [12] 5.33% | [13] 16% | [14] 5%

From ChEMBL document CHEMBL4507291 (2021)
